Data: patent US8828908B2, “Herbicidally active bicyclic 1,3-dione compounds” (Syngenta Limited, priority 2007, dated 2014)

Tests used:
Assay type in all cases: in vivo
[1] = test system: Alopecurus myosuroides (ALOMY); experiment: Example A pre-emergence herbicidal glasshouse test; conditions: 312 h, Rate 250 g/ha, evaluated after 13 days, 100=total damage to plant, 0=no damage to plant
How it was run: (§1)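 Potted plants grown from seed in a controlled glasshouse (24 °C day, 16 °C night; 14 h light; 65% humidity) were sprayed either pre-emergence, one day after sowing, or post-emergence after 8 days. Vehicle: acetone/water (50:50), 0.5% Tween 20. Scoring after 13 days, 0 = undamaged.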

[2] = test system: Amaranthus retroflexus (AMARE); experiment: Example A pre-emergence herbicidal glasshouse test; conditions: 312 h, Rate 250 g/ha, evaluated after 13 days, 100=total damage to plant, 0=no damage to plant
How it was run: as §1

Avena fatua (AVEFA) [3] = experiment: Example A pre-emergence herbicidal glasshouse test; conditions: 312 h, Rate 250 g/ha, evaluated after 13 days, 100=total damage to plant, 0=no damage to plant
How it was run: as §1

[4] = test system: Echinochloa crus-galli (ECHCG); experiment: Example A pre-emergence herbicidal glasshouse test; conditions: 312 h, Rate 250 g/ha, evaluated after 13 days, 100=total damage to plant, 0=no damage to plant
How it was run: as §1

Setaria faberi (SETFA) [5] = experiment: Example A pre-emergence herbicidal glasshouse test; conditions: 312 h, Rate 250 g/ha, evaluated after 13 days, 100=total damage to plant, 0=no damage to plant
How it was run: as §1

[6] = test system: Alopecurus myosuroides (ALOMY); experiment: Example A post-emergence herbicidal glasshouse test; conditions: 312 h, evaluated after 13 days, 100=total damage to plant, 0=no damage
How it was run: as §1

[7] = test system: Amaranthus retroflexus (AMARE); experiment: as above; conditions: 312 h, evaluated after 13 days, 100=total damage to plant, 0=no damage
How it was run: as §1

Avena fatua (AVEFA) [8] = experiment: as above; conditions: 312 h, evaluated after 13 days, 100=total damage to plant, 0=no damage
How it was run: as §1

[9] = test system: Echinochloa crus-galli (ECHCG); experiment: as above; conditions: 312 h, evaluated after 13 days, 100=total damage to plant, 0=no damage
How it was run: as §1

Setaria faberi (SETFA) [10] = experiment: as above; conditions: 312 h, evaluated after 13 days, 100=total damage to plant, 0=no damage
How it was run: as §1

[11] = test system: Alopecurus myosuroides (ALOMY); experiment: Example B pre-emergence herbicidal greenhouse test; conditions: 480 h, evaluated after 20 days, 100=total damage to plant, 0=no damage
How it was run: (§2)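 Pots sown with test species were sprayed 1 day after sowing (pre-emergence) or at 10 days post-sowing (post-emergence) with the technical ingredient dissolved in acetone and diluted via emulsifier/solvent formulation. After 20 days (pre) or 15 days (post), effect was rated from 0 (no damage) to 100 (total damage).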

Avena fatua (AVEFA) [12] = experiment: Example B pre-emergence herbicidal greenhouse test; conditions: 480 h, evaluated after 20 days, 100=total damage to plant, 0=no damage
How it was run: as §2

[13] = test system: Digitaria sanguinalis (DIGSA); experiment: Example B pre-emergence herbicidal greenhouse test; conditions: 480 h, evaluated after 20 days, 100=total damage to plant, 0=no damage
How it was run: as §2

[14] = test system: Echinochloa crus-galli (ECHCG); experiment: Example B pre-emergence herbicidal greenhouse test; conditions: 480 h, evaluated after 20 days, 100=total damage to plant, 0=no damage
How it was run: as §2

Lolium perenne (LOLPE) [15] = experiment: Example B pre-emergence herbicidal greenhouse test; conditions: 480 h, evaluated after 20 days, 100=total damage to plant, 0=no damage
How it was run: as §2

Setaria faberi (SETFA) [16] = experiment: Example B pre-emergence herbicidal greenhouse test; conditions: 480 h, evaluated after 20 days, 100=total damage to plant, 0=no damage
How it was run: as §2

[17] = test system: Alopecurus myosuroides (ALOMY); experiment: Example B post-emergence herbicidal greenhouse test; conditions: 360 h, evaluated after 15 days, 100=total damage to plant, 0=no damage
How it was run: as §2

Avena fatua (AVEFA) [18] = experiment: as above; conditions: 360 h, evaluated after 15 days, 100=total damage to plant, 0=no damage
How it was run: as §2

[19] = test system: Digitaria sanguinalis (DIGSA); experiment: as above; conditions: 360 h, evaluated after 15 days, 100=total damage to plant, 0=no damage
How it was run: as §2

[20] = test system: Echinochloa crus-galli (ECHCG); experiment: as above; conditions: 360 h, evaluated after 15 days, 100=total damage to plant, 0=no damage
How it was run: as §2

Lolium perenne (LOLPE) [21] = experiment: as above; conditions: 360 h, evaluated after 15 days, 100=total damage to plant, 0=no damage
How it was run: as §2

Setaria faberi (SETFA) [22] = experiment: as above; conditions: 360 h, evaluated after 15 days, 100=total damage to plant, 0=no damage
How it was run: as §2

| SMILES | pest or weed control at 250 g/ha [1] | pest or weed control at 250 g/ha [2] | pest or weed control at 250 g/ha (Avena fatua (AVEFA) [3]) | pest or weed control at 250 g/ha [4] | pest or weed control at 250 g/ha (Setaria faberi (SETFA) [5]) | pest or weed control at 250 g/ha [6] | pest or weed control at 250 g/ha [7] | pest or weed control at 250 g/ha (Avena fatua (AVEFA) [8]) | pest or weed control at 250 g/ha [9] | pest or weed control at 250 g/ha (Setaria faberi (SETFA) [10]) | pest or weed control at 250 g/ha [11] | pest or weed control at 250 g/ha (Avena fatua (AVEFA) [12]) | pest or weed control at 250 g/ha [13] | pest or weed control at 250 g/ha [14] | pest or weed control at 250 g/ha (Lolium perenne (LOLPE) [15]) | pest or weed control at 250 g/ha (Setaria faberi (SETFA) [16]) | pest or weed control at 125 g/ha [17] | pest or weed control at 125 g/ha (Avena fatua (AVEFA) [18]) | pest or weed control at 125 g/ha [19] | pest or weed control at 125 g/ha [20] | further results |
| --- | --- | --- | --- | --- | --- | --- | --- | --- | --- | --- | --- | --- | --- | --- | --- | --- | --- | --- | --- | --- | --- |
| CCc1ccc(-c2ccc(Cl)c(Cl)c2)cc1C1=C(O)[C@H]2CC[C@H](C2)C1=O (single isomer, unassigned) [Compound T35] | 20% | 0% | 20% | 90% | 90% | 40% | 0% | 50% | 100% | 100% | 10% | 30% | 70% | 50% | 20% | 40% | 0% | 10% | 70% | 80% | pest or weed control at 125 g/ha (Lolium perenne (LOLPE) [21]): 20%; pest or weed control at 125 g/ha (Setaria faberi (SETFA) [22]): 70% |
| CCc1ccc(-c2ccc(Cl)c(F)c2)cc1C1=C(O)[C@H]2CC[C@H](C2)C1=O (single isomer, unassigned) [Compound T36] | 70% | 0% | 50% | 100% | 100% | 90% | 0% | 100% | 100% | 100% | 70% | 60% | 100% | 100% | 90% | 90% | 80% | 100% | 100% | 100% | pest or weed control at 125 g/ha (Lolium perenne (LOLPE) [21]): 30%; pest or weed control at 125 g/ha (Setaria faberi (SETFA) [22]): 100% |
| CCc1ccc(-c2ccc(Cl)c(C(F)(F)F)c2)cc1C1=C(O)[C@H]2CC[C@H](C2)C1=O (single isomer, unassigned) [Compound T37] | 50% | 0% | 0% | 90% | 90% | 90% | 20% | 90% | 100% | 100% | 70% | 60% | 90% | 100% | 40% | 100% | 70% | 90% | 100% | 100% | pest or weed control at 125 g/ha (Lolium perenne (LOLPE) [21]): 30%; pest or weed control at 125 g/ha (Setaria faberi (SETFA) [22]): 100% |
| CCc1ccc(-c2ccc(F)c(Cl)c2)cc1C1=C(O)[C@H]2CC[C@H](C2)C1=O (single isomer, unassigned) [Compound T39] | 50% | 20% | 30% | 100% | 100% | 60% | 0% | 30% | 100% | 100% | 70% | 40% | 90% | 90% | 90% | 90% | 0% | 20% | 80% | 80% | pest or weed control at 125 g/ha (Lolium perenne (LOLPE) [21]): 10%; pest or weed control at 125 g/ha (Setaria faberi (SETFA) [22]): 70% |
| CCc1ccc(-c2ccc(Cl)cc2F)cc1C1=C(O)[C@H]2CC[C@H](C2)C1=O (single isomer, unassigned) [Compound T41] | 60% | 0% | 100% | 90% | 100% | 60% | 0% | 100% | 100% | 100% | 90% | 60% | 100% | 100% | 100% | 100% | 80% | 100% | 100% | 100% | pest or weed control at 125 g/ha (Lolium perenne (LOLPE) [21]): 70%; pest or weed control at 125 g/ha (Setaria faberi (SETFA) [22]): 100% |
| CCc1ccc(-c2ccc(Cl)cc2OC)cc1C1=C(O)[C@H]2CC[C@H](C2)C1=O (single isomer, unassigned) [Compound T43] | 0% | 0% | 0% | 90% | 30% | 50% | 0% | 40% | 90% | 80% | 0% | 60% | 60% | 40% | 0% | 20% | 0% | 0% | 50% | 70% | pest or weed control at 125 g/ha (Lolium perenne (LOLPE) [21]): 30%; pest or weed control at 125 g/ha (Setaria faberi (SETFA) [22]): 60% |
| CCc1ccc(-c2ccc(Cl)cc2)cc1C1=C(O)[C@H]2C=C[C@H](CC2)C1=O (single isomer, unassigned) [Compound T55] | 0% | 0% | 0% | 70% | 90% | 50% | 0% | 20% | 100% | 100% | 10% | 30% | 30% | 50% | 60% | 10% | 60% | 70% | 100% | 100% | pest or weed control at 125 g/ha (Lolium perenne (LOLPE) [21]): 80%; pest or weed control at 125 g/ha (Setaria faberi (SETFA) [22]): 100% |
| CCc1cc(-c2ccc(Cl)cc2)ccc1C1=C(OC(C)=O)[C@@H]2CC[C@@H](C2)C1=O [Compound P3] | 60% | 0% | 40% | 70% | 80% | 90% | 0% | 80% | 100% | 100% | 30% | 10% | 70% | 50% | 50% | 60% | 90% | 80% | 90% | 80% | pest or weed control at 125 g/ha (Lolium perenne (LOLPE) [21]): 80%; pest or weed control at 125 g/ha (Setaria faberi (SETFA) [22]): 80% |
